Laboratory results: paper PMC4128677, “Somatostatin Analogues for Receptor Targeted Photodynamic Therapy” (PLoS ONE, 2014)
Where “and” joins values, the source holds several entries; their conditions need not be identical. Equal entries are not always repeated.

How the values were obtained:
[1] = pH titration of fluorescence/absorbance (pKa); format: physicochemical; details: Fmax/A(λexc) versus pH, sigmoidal fit; PBS titrated with HNO3 and NaOH over pH 4.0-8.5; 0.8 µM; λexc = 408 nm
Protocol: pH measurements. The pH titration of PBS was performed with HNO3 and NaOH over pH 4.0-8.5. The final concentration of Ce6 and Ce6-conjugates in solution was 0.8 µM. The pH was measured by Sentron pH meter (Sentron Europe, NL) and the absorption and fluorescence emission (λexc = 408 nm) profiles of solutions were recorded. The inflection point of titration curves (pKa) were evaluated as reported. Briefly, the results of fluorescence titrations are presented in terms of a plot of fluorescence intensity as a function of pH with the constant concentration of the compound used throughout measurements. However, variations of fluorescence intensity are due to at least two contributions: the changes of molar extinction coefficient (differed absorbed intensity) and the changes of quantum efficiency with pH. To eliminate the influence of the molar extinction coefficient variations, the ratio of fluorescence intensity at the peak position to the absorbance at the excitation wavelength was plotted, followed by sigmoidal function fitting procedure (Figures S2-S4).

[2] = tested on: sst2+ AR42J acinar pancreas tumors; assay: Intra-vital fluorescence pharmacokinetics in AR42J tumors in rat skin-fold chambers; format: in vivo; details: i.v. tail vein, conjugate 1 0.67 mg/kg, Ce6 0.2 mg/kg, rat skin-fold chamber
Protocol: Intra-vital confocal fluorescence imaging was performed in single sided rat skin-fold chambers transplanted with sst2 ^+ AR42J acinar pancreas tumors as described previously. The study was approved by the animal experimental committee of the Erasmus MC. Chambers were prepared in 12 animals divided into three groups. […] The first group of animals received Ce6 at a dose of 0.2 mg/kg, the second group received conjugate 1 at a dose of 0.67 mg/kg such that the same number of Ce6 molecules were administered to each animal; (equivalent Ce6 concentration of 2.011×10^−4 M).
Animals were anesthetized using isoflurane/O2 and autofluorescence images were recorded. Drug was administered intravenously into the tail vein. Fluorescence images were acquired 5 and 20 minutes after conjugate administration after which the animal was allowed to recover. Subsequent fluorescence images were acquired under anesthesia at 1, 4, 24, 72 and 96 hrs. […] Confocal fluorescence imaging (LSM 510 Meta (Zeiss, Germany)) was performed using a 40× objective. The distribution of Ce6 fluorescence was mapped under 514 nm laser excitation in the lambda mode (539–753 nm). […] Spectra acquired from individual pixels were analyzed as a linear combination of basis spectra and fitted using a singular value decomposition algorithm. The fluorescence of Ce6 and conjugate 1 was determined in ROIs. […]

[3] = Steady-state absorption and fluorescence in PBS; format: physicochemical; details: PBS pH = 7.4
Protocol: Steady-State Fluorescence and Absorption Measurements. The fluorescence quantum yields (ΦF) of Ce6 and conjugates in PBS pH 7.4 were determined by a relative method. Ce6 in the buffer at pH 7.4 with the quantum yield of 0.18 [24,32,33] was used as a reference.
The absorption profile of Ce6 and conjugate in PBS of concentration (0.06–1µM) was recorded in Shimadzu spectrophotometer (UV-2101 PC, Duisburg, Germany).
The fluorescence emission of photosensitizers was recorded in a Perkin-Elmer spectrofluorimeter (LS 50B, Massachussetts, USA). Light at 408 nm was used for excitation. The concentration range of compounds matched to the O.D. up to 0.1.

[4] = PBS pH = 7.4; used as reference; cited from earlier work
Source text: The fluorescence quantum yield of Ce6 in neutral pH was similar to conjugates 1 (ΦF = 0.18 for Ce6 and ΦF = 0.20 for 1).

[5] = tested on: K562 sst2+ cells; assay: In vitro PDT phototoxicity, K562 sst2+ cells; format: cell-based, human
Protocol: In vitro PDT experiments were performed to determine the phototoxicity of free Ce6 and conjugates. K562 sst2+ and WT cells were seeded in L-polylysine-coated (10 µg/ml) 96-well (8×10^3/well) and 24-well (4×10^4/well) and incubated overnight in 5% CO2 at 37°C. […] After incubation, cells were washed. Fresh serum-free medium was added, and cells were illuminated with 652 nm to a dose from 0.5 to 5 J cm^−2 at 5 mW.cm^−2. Thereafter, serum-containing medium was added and cells were allowed to grow for an additional 3 days in 5% FCS medium. Toxicity was determined by: measurement of DNA contents using the bisbenzimide fluorescent dye (Hoechst 33258, Boehring Diagnostics, CA, USA) and measurement of mitochondrial dehydrogenase cleavage of WST-1 reagent (Roche Diagnostics, Germany), [39]. Experiments were done in triplicates.

[6] = PBS pH = 7.4; used as reference; cited from earlier work; remark: listed apart in the source
[7] = Photobleaching under 652 nm irradiation in PBS; format: physicochemical
Protocol: Photobleaching measurements. The loss of photosensitizer absorbance and fluorescence during irradiation was used to monitor photobleaching. Solutions of Ce6 and Ce6-conjugates were prepared in PBS pH = 7.4. The concentration of photosensitizers were adjusted so that all absorb the same number of photons at irradiated region (O.D. = 0.014 at the λirr. = 652 nm (Biolitec pharma, UK). Data was acquired in quartz cuvettes in aerobic conditions using stirring under uniform, measured irradiation at 5 mWcm^-2. At intervals, the cuvette was removed from magnetic stirrer and absorption and fluorescence emission spectrum (λexc = 405 nm) acquired. The initial absorption bleaching rate constants (kblA) for Ce6 and conjugates were evaluated as reported.

[8] = 1-Octanol/PBS partition coefficient; format: physicochemical; details: 1-octanol / PBS pH = 7.4; Poct/buffer = Coct/Cbuffer; stock 0.6 mM in DMSO; duplicates
Protocol: Partition coefficient. Stock solutions of Ce6 and conjugates (0.6 mM) were prepared in DMSO. Lipophilicity was characterized by their partition coefficient Poct/buffer = Coct/Cbuffer between two solvents 1-octanol (oct) and PBS, pH = 7.4 (buffer). Measurements were carried out in duplicates as described by Cunderlikova et al.

[9] = tested on: K562 sst2+ cells; assay: Cellular uptake in K562 sst2+ and WT cells; format: cell-based, human; details: 1 µM
Protocol: Stock solutions of Ce6 and Ce6-conjugates (1 mM) were dissolved in 80% DMSO and were stored in the dark at −20°C. Before experiments, the solutions were diluted to a concentration of 0.1 mM in 20% DMSO. K562 sst2+ or WT (3×10^5) in 1 ml RPMI 1640 serum-free or supplemented with 5% FCS were incubated with Ce6 or with conjugate (1 µM) for 15 min to 24 h in the dark at 37°C. After incubation, the cells were centrifuged, cell pellet dissolved in 2% SDS and fluorescence emission spectra (λexc = 405 nm) recorded. Photosensitizer concentrations were calculated in triplicate according to a calibration curve generated by mixing a known concentration of photosensitizer with a lysated control samples.

Compound: C=Cc1c(C)c2cc3nc(c(CC(=O)O)c4[nH]c(cc5nc(cc1[nH]2)C(C)=C5CC)c(C)c4C(=O)O)[C@@H](CCC(=O)O)[C@@H]3C [Ce6, Chlorin e6]
- pKa, inflection point of pH titration curve [1]: 6.71 and 6.71±0.0947
- time of fluorescence peak in tumor tissue [2]: gradually increased over the first 3 days
- full width at half maximum of the Q(0,0) absorption band [3]: 21 nm
- full width at half maximum of the Soret absorption band [3]: 27 nm
- maximum of fluorescence band [3]: 661 nm
- maximum of the Q(0,0) absorption band [3]: 655 nm
- maximum of the Soret absorption band [3]: 402 nm
- ΦF, fluorescence quantum yield (reference value) [4]: 0.18
- cell survival after PDT compared to control cells ([5]; K562 sst2+, 1 µM, 4 h incubation, serum-free, 652 nm, 5 J.cm^−2, read after 3 days): almost complete inhibition of cell viability
- light dose from which phototoxicity was seen ([5]; K562 sst2+, 1 µM, 4 h incubation, 652 nm): 0.5 J.cm^−2
- effect on cell growth of photosensitizer alone in the absence of light ([5]; dark toxicity, K562 cells): no effect on cell growth
- ΦΔ, singlet oxygen quantum yield (reference value) [6]: 0.64 and 0.64±0.08
- kblA, rate constant of initial absorption bleaching ([7]; PBS pH = 7.4, 652 nm irradiation at 5 mWcm^-2, O.D. = 0.014 at 652 nm, aerobic, stirring): 25.69 x 10^−2 J^−1 cm^2
- photostability ([7]; PBS, 652 nm irradiation, fluorescence bleaching): low photostability
- LogP, logarithm of partition coefficient [8]: 0.005±0.05
- uptake in sst2+ cells compared to WT cells (factor) ([9]; serum-free and 5% FCS medium, fluorescence of lysate, λexc = 405 nm): same result as for conjugate 2
- concentration taken up by sst2+ cells ([9]; 4 h incubation, K562 sst2+): 90 nM
